Measured values: PubChem BioAssay AID1259408 (Genetic Toxicology Data Bank (GENE-TOX), 2018)
Calls of active or inactive are those of the source. How the calls were made is not given here.

Tested on: GENE-TOX genotoxicity assays, various organisms and cells
Test: GENE-TOX mutagenicity studies
Conditions: for call: Assay Type: In vivo carcinogenicity studies
Text: GENE-TOX provides genetic toxicology (mutagenicity) test data from expert peer review of open scientific literature for more than 3,000 chemicals from the United States Environmental Protection Agency (EPA). GENE-TOX was established to select assay systems for evaluation, review data in the scientific literature, and recommend proper testing protocols and evaluation procedures for these systems.
GENE-TOX covers the years 1991 - 1998. It is no longer updated.
This is an archive assay for GENE-TOX mutagenicity studies.

[1] = Species/Cell Type: Nonhuman, Assay Code: CCGT, Evaluation Type: Evaluation A (Pre-1980)
[2] = Species/Cell Type: Salmonella typhimurium (one or more of the five standard strains: TA98, TA100, TA1535, TA1537, and TA1538), Assay Type: Histidine reverse gene mutation, Ames assay, Assay Code: SALT, Evaluation Type: Evaluation A (Pre-1980)
[3] = Species/Cell Type: Nonhuman, Assay Code: CCG+, Evaluation Type: Evaluation A (Pre-1980)
[4] = Species/Cell Type: Salmonella typhimurium (one or more of the five standard strains: TA98, TA100, TA1535, TA1537, and TA1538), Assay Type: Histidine reverse gene mutation, Ames assay, Assay Code: SAL+, Evaluation Type: Evaluation A (Pre-1980)
[5] = Species/Cell Type: Human lymphocytes, Assay Type: Sister-chromatid exchange (SCE) in vitro, Assay Code: SCL+D, Dose Response: With dose response, Evaluation Type: Evaluation B (Post-1980)
[6] = Species/Cell Type: Human, Assay Type: Sister-chromatid exchange (SCE) in vitro, Assay Code: SC1+D, Dose Response: With dose response, Evaluation Type: Evaluation B (Post-1980)
[7] = Species/Cell Type: Saccharomyces cerevisiae, Assay Type: Reverse gene mutation, Assay Code: YERT, Evaluation Type: Evaluation A (Pre-1980)
[8] = Species/Cell Type: Escherichia coli polA (W3119 vs P3478), Assay Type: Rec-assay, DNA effects (bacterial DNA repair), Assay Code: RE1T, Evaluation Type: Evaluation A (Pre-1980)
[9] = Species/Cell Type: Salmonella typhimurium, Assay Type: Forward and reverse gene mutation, host-mediated assay, Assay Code: HMA-, Evaluation Type: Evaluation A (Pre-1980)
[10] = Species/Cell Type: Bacillus subtilis (H17 vs M45), Assay Type: Rec-assay, spot test, DNA effects (bacterial DNA repair), Assay Code: REW+, Evaluation Type: Evaluation A (Pre-1980)
[11] = Species/Cell Type: Vicia faba, Assay Type: Chromosome aberrations, Assay Code: VIC+D, Dose Response: With dose response, Evaluation Type: Evaluation A (Pre-1980)
[12] = Species/Cell Type: Mammalian polychromatic erythrocytes, Assay Type: Micronucleus test, chromosome aberrations, Assay Code: MNT+, Evaluation Type: Evaluation B (Post-1980)
[13] = Species/Cell Type: Mammalian polychromatic erythrocytes, Assay Type: Micronucleus test, chromosome aberrations, Assay Code: MNTT, Evaluation Type: Evaluation B (Post-1980)
[14] = Species/Cell Type: Fischer rat embryo (RLV/1706) cells, Assay Type: Cell transformation, viral enhanced, Assay Code: CTR+, Evaluation Type: Evaluation A (Pre-1980)

## O=C1C=Cc2ccc3c4c(ccc1c24)C(=O)c1ccccc1-3
Species/Cell Type: Chinese hamster lung (V79) cells, Assay Type: Forward gene mutation at the HPRT or ouabain locus, Assay Code: V79+, Evaluation Type: Evaluation A (Pre-1980)
  mutagenic call: active; positive
[1]
  call: no conclusion
[2]
  mutagenic call: no conclusion

## COc1ccc(OC)c(N=Nc2c(O)ccc3ccccc23)c1
[3]
  call: active; positive
Species/Cell Type: Salmonella typhimurium (one or more of the five standard strains: TA98, TA100, TA1535, TA1537, and TA1538), Assay Type: Histidine reverse gene mutation, Ames assay, Assay Code: SAL-, Evaluation Type: Evaluation A (Pre-1980)
  mutagenic call: inactive; negative

## Oc1c(Br)cc(Br)c2cccnc12
[2]
  mutagenic call: no conclusion

## CCCN1CCN(c2ccc([N+](=O)[O-])c3no[n+]([O-])c23)CC1
[4]
  mutagenic call: active; positive

## ClCc1ccc(-c2ccccc2)cc1
Species/Cell Type: Chinese hamster ovary (CHO) cells, Assay Type: Forward gene mutation at the HPRT locus, Assay Code: CHOT, Evaluation Type: Evaluation B (Post-1980)
  mutagenic call: no conclusion
[5]
  mutagenic call: active; positive
[6]
  mutagenic call: active; positive
Species/Cell Type: Mammalian polychromatic erythrocytes, Assay Type: Micronucleus test, chromosome aberrations, Assay Code: MNT-, Evaluation Type: Evaluation B (Post-1980)
  mutagenic call: inactive; negative

## O=[N+]([O-])c1ccc(C=NCCO)o1
[4]
  mutagenic call: active; positive

## CCN(CC)Cc1cc(Br)ccc1OCC(=O)N/N=C\c1ccc(OC)cc1
[7]
  mutagenic call: no conclusion

## ClCC1OC(CCl)OC(CCl)O1 (configuration not stated)
[4]
  mutagenic call: active; positive

## C1=CC2c3ccccc3OC2O1 (configuration not stated)
Species/Cell Type: Salmonella typhimurium (one or more of the five standard strains: TA98, TA100, TA1535, TA1537, and TA1538), Assay Type: Histidine reverse gene mutation, Ames assay, Assay Code: SAL+*, Activation: With metabolic activation, Evaluation Type: Evaluation A (Pre-1980)
  mutagenic call: active; positive

## O=[N+]([O-])c1ccc(N=Nc2ccccc2)cc1
[4]
  mutagenic call: active; positive

## Oc1ccc2ccc3c4ccccc4cc4ccc1c2c43
Species/Cell Type: Chinese hamster lung (V79) cells, Assay Type: Forward gene mutation at the HPRT or ouabain locus, Assay Code: V79+/-*, Activation: With metabolic activation, Evaluation Type: Evaluation A (Pre-1980)
  mutagenic call: inactive; positive without activation, negative with activation
Species/Cell Type: Escherichia coli polA (W3110 vs P3478), Assay Type: Rec-assay, DNA effects (bacterial DNA repair), Assay Code: RE2+, Evaluation Type: Evaluation A (Pre-1980)
  mutagenic call: active; positive
[8]
  mutagenic call: no conclusion
[1]
  call: no conclusion
Species/Cell Type: Saccharomyces cerevisiae, Assay Type: Mitotic recombination or gene conversion, Assay Code: YEH-, Evaluation Type: Evaluation A (Pre-1980)
  mutagenic call: inactive; negative
[4]
  mutagenic call: active; positive
[9]
  mutagenic call: inactive; negative

## [N-]=[N+]=Nc1ccc2c(c1)Cc1ccccc1-2
Species/Cell Type: Mouse (C3H/10T1/2) cells, Assay Type: Cell transformation, Assay Code: CTH-, Evaluation Type: Evaluation A (Pre-1980)
  mutagenic call: inactive; negative

## CNC(=O)C(C)SCCSP(=O)(OC)OC (configuration not stated)
[10]
  mutagenic call: active; positive
Species/Cell Type: Escherichia coli WP2, Assay Type: Tryptophan reverse gene mutation, Assay Code: WP2+, Evaluation Type: Evaluation A (Pre-1980)
  mutagenic call: active; positive
Species/Cell Type: Escherichia coli WP2 UVRA, Assay Type: Tryptophan reverse gene mutation, Assay Code: WPU+, Evaluation Type: Evaluation A (Pre-1980)
  mutagenic call: active; positive
Species/Cell Type: Nonhuman, Assay Type: Sister-chromatid exchange (SCE) in vitro, Assay Code: SC2+D, Dose Response: With dose response, Evaluation Type: Evaluation B (Post-1980)
  mutagenic call: active; positive
[4]
  mutagenic call: active; positive

## CCCCCc1cc(O)cc(O)c1
Species/Cell Type: Human lymphocytes, Assay Type: Micronucleus test in vitro, chromosome aberrations, Assay Code: MN7+, Evaluation Type: Evaluation A (Pre-1980)
  mutagenic call: active; positive

## CC(=O)C(NC(=O)C(C)C(O)C(C)NC(=O)C(NC(=O)c1nc(C(CC(N)=O)NCC(N)C(N)=O)nc(N)c1C)C(O[C@@H]1O[C@@H](CO)[C@@H](O)[C@H](O)[C@]1(C)O[C@@H]1OC(CO)[C@H](O)[C@](O)(C(N)=O)[C@H]1O)c1cnc[nH]1)C(=O)NCCC1=NC(c2nc(C(N)=O)cs2)CS1 (some centres not stated)
Species/Cell Type: Mammalian oocytes or early embryo, Assay Type: Chromosome aberrations in vivo, Assay Code: CYO+, Evaluation Type: Evaluation A (Pre-1980)
  mutagenic call: active; positive
[11]
  mutagenic call: active; positive

## CNC(=O)/C=C(\C)OP(=O)(OC)OC
Species/Cell Type: Bacillus subtilis (H17 vs M45), Assay Type: Rec-assay, spot test, DNA effects (bacterial DNA repair), Assay Code: REWT, Evaluation Type: Evaluation A (Pre-1980)
  mutagenic call: no conclusion
Species/Cell Type: Drosophila melanogaster, Assay Type: Sex-linked recessive lethal gene mutation, Assay Code: SRL-, Evaluation Type: Evaluation A (Pre-1980)
  mutagenic call: inactive; negative
Species/Cell Type: Escherichia coli WP2 UVRA, Assay Type: Tryptophan reverse gene mutation, Assay Code: WPU-*, Activation: With metabolic activation, Evaluation Type: Evaluation A (Pre-1980)
  mutagenic call: inactive; negative
[8]
  mutagenic call: no conclusion
Species/Cell Type: Human diploid fibroblasts, Assay Type: Unscheduled DNA synthesis (UDS) in vitro, DNA effects, Assay Code: UDH+, Evaluation Type: Evaluation A (Pre-1980)
  mutagenic call: active; positive
[6]
  mutagenic call: active; positive
[12]
  mutagenic call: active; positive
Species/Cell Type: Saccharomyces cerevisiae, Assay Type: Mitotic recombination or gene conversion, Assay Code: YEH+, Evaluation Type: Evaluation A (Pre-1980)
  mutagenic call: active; positive
[2]
  mutagenic call: no conclusion

## c1ccc(-c2ccc(C3CO3)cc2)cc1 (configuration not stated)
[4]
  mutagenic call: active; positive

## Cc1ccc(N)c(N)c1
[12]
  mutagenic call: active; positive

## C=Cc1ccccc1C
[5]
  mutagenic call: active; positive
[6]
  mutagenic call: active; positive

## c1cc2cccc3c4cccc5cccc(c(c1)c23)c54
Species/Cell Type: Chinese hamster lung (V79) cells, Assay Type: Forward gene mutation, host-mediated assay, Assay Code: HMG-, Evaluation Type: Evaluation A (Pre-1980)
  mutagenic call: inactive; negative
Species/Cell Type: Nonhuman, Assay Type: Sister-chromatid exchange (SCE) in vivo, Assay Code: SC3-, Evaluation Type: Evaluation A (Pre-1980)
  mutagenic call: inactive; negative

## [O][Cl+][O-]
[13]
  mutagenic call: no conclusion

## CN(C)c1ccc(N=Nc2ccc3nc4ccc(N)cc4[n+](-c4ccccc4)c3c2)cc1
Species/Cell Type: Bacillus subtilis (H17 vs M45), Assay Type: Rec-assay, spot test, DNA effects (bacterial DNA repair), Assay Code: REW-, Evaluation Type: Evaluation A (Pre-1980)
  mutagenic call: inactive; negative

## O=c1ccc2cc3ccoc3cc2o1
Species/Cell Type: Mammalian cell culture, nonhuman, Assay Type: Micronucleus test in vitro, chromosome aberrations, Assay Code: MN&+, Evaluation Type: Evaluation A (Pre-1980)
  mutagenic call: active; positive
[7]
  mutagenic call: no conclusion

## C[As]=S (configuration not stated)
[10]
  mutagenic call: active; positive

## C[N+](C)(C)CCCl
Species/Cell Type: Nonhuman, Assay Code: CCG-, Evaluation Type: Evaluation A (Pre-1980)
  call: inactive; negative
[11]
  mutagenic call: active; positive

## COc1cc2c(c(O)c1O)C(=O)c1c(O)cc(C)cc1C2=O
[4]
  mutagenic call: active; positive

## CN(CC(=O)O)N=O
[3]
  call: active; positive
[9]
  mutagenic call: inactive; negative

## C#C[C@]1(O)CC[C@H]2[C@@H]3CCc4cc(O)ccc4[C@H]3CC[C@@]21C
[14]
  mutagenic call: active; positive
Species/Cell Type: Mouse (BALB/c-3T3) cells, Assay Type: Cell transformation, Assay Code: CTB-, Evaluation Type: Evaluation A (Pre-1980)
  mutagenic call: inactive; negative
[3]
  call: active; positive
Species/Cell Type: Syrian hamster embryo (SHE) cells, Assay Type: Cell transformation, clonal assay, Assay Code: CTC-, Evaluation Type: Evaluation A (Pre-1980)
  mutagenic call: inactive; negative

## Cc1cc(Cl)ccc1OC(C)C(=O)O (configuration not stated)
Species/Cell Type: Saccharomyces cerevisiae, Assay Type: Mitotic recombination or gene conversion, Assay Code: YEC+, Evaluation Type: Evaluation A (Pre-1980)
  mutagenic call: active; positive

## CNC(=O)Nc1nc(-c2ccccc2)cs1
Species/Cell Type: Salmonella typhimurium, Serratia marcesens, Assay Type: Forward and reverse gene mutation, host-mediated assay, Assay Code: HM2+, Evaluation Type: Evaluation A (Pre-1980)
  mutagenic call: active; positive

## CCCCCCN(N=O)C(N)=O
[4]
  mutagenic call: active; positive

## Nc1nc(N)nc(-c2ccc([N+](=O)[O-])o2)n1
[4]
  mutagenic call: active; positive

## S=C(NC1CCCCC1)NC1CCCCC1
[14]
  mutagenic call: active; positive

## C[C@@H]1O[C@H]1P(=O)(O)O
[13]
  mutagenic call: no conclusion
